Source: patent US6670345B1 (Dabur Research Foundation, priority 1997, dated 2003)
≈ marks a conversion by molar mass, not a printed value.

Key:
Settings in all cases: 72 hours
leukemia cells (MOLT-4) = experiment: MTT cytotoxicity assay, leukemia cells (MOLT-4); format: cell-based, human
Procedure: (§1) After 72 hours, the assay was terminated and percent cyotoxicities calculated.

lymphoma cells (U937) = experiment: MTT cytotoxicity assay, lymphoma cells (U937); format: cell-based, human
Procedure: as §1

human prostate (DU145) = experiment: MTT cytotoxicity assay, human prostate (DU145); format: cell-based
Procedure: as §1

human colon (HT29) = experiment: MTT cytotoxicity assay, human colon (HT29); format: cell-based
Procedure: as §1

human larynx (HeP.2) = experiment: MTT cytotoxicity assay, human larynx (HeP.2); format: cell-based
Procedure: as §1

human lung (L132) = experiment: MTT cytotoxicity assay, human lung (L132); format: cell-based
Procedure: as §1

[1] = system: ovarian cancer cells (PA-1); experiment: MTT cytotoxicity assay, ovarian cancer cells (PA-1); format: cell-based, human
Procedure: as §1

SMILES: COC(=O)COC(=O)C12CCC(C(C)C)C1C1CCC3C4(C)CCC(NC(C)=O)C(C)(C)C4CCC3(C)C1(C)CC2 (centres unmarked) [Derivative 1025]
- ED50 Leukemia MOLT-4 (leukemia cells (MOLT-4)): 1.0 µg/mL (≈ 1.75 µM)
- ED50 Lymphoma U937 (lymphoma cells (U937)): >10 µg/mL
- ED50 Prostate DU 145 (human prostate (DU145)): >4 µg/mL
- ED50 Colon HT-29 (human colon (HT29)): >10 µg/mL
- ED50 Larynx Hep. 2 (human larynx (HeP.2)): >10 µg/mL
- ED50 Lung L 132 (human lung (L132)): 3.2 µg/mL (≈ 5.6 µM)
- ED50 Ovary PA-I [1]: >4.0 µg/mL

SMILES: CC(C)C1CCC2(C(=O)OC(=O)C34CCC(C(C)C)C3C3CCC5C6(C)CC(Br)C(=O)C(C)(C)C6CCC5(C)C3(C)CC4)CCC3(C)C(CCC4C5(C)CC(Br)C(=O)C(C)(C)C5CCC43C)C12 (centres unmarked) [Derivative 1163]
- ED50 Leukemia MOLT-4 (leukemia cells (MOLT-4)): 1.6 µg/mL (≈ 1.52 µM)
- ED50 Lymphoma U937 (lymphoma cells (U937)): 3.8 µg/mL (≈ 3.61 µM)
- ED50 Prostate DU 145 (human prostate (DU145)): 6.0 µg/mL (≈ 5.7 µM)
- ED50 Colon HT-29 (human colon (HT29)): 7.3 µg/mL (≈ 6.93 µM)
- ED50 Larynx Hep. 2 (human larynx (HeP.2)): 5.0 µg/mL (≈ 4.75 µM)
- ED50 Lung L 132 (human lung (L132)): 6.5 µg/mL (≈ 6.17 µM)
- ED50 Ovary PA-I [1]: >4.0 µg/mL
